Measurements taken from patent US20250249001A1, “METHODS OF TREATING SUBSTANCE USE DISORDER WITH 4-(3-CYANOPHENYL)-6-PYRIDINYLPYRIMIDINE MGLU5 NEGATIVE ALLOSTERIC MODULATORS” (Tempero Bio, Inc., priority 2022, published 2025).

Experiments:
[1] = test system: cocaine reinstatement in rats; assay: Yohimbine-induced reinstatement of cocaine self-administration (Stage II); format: in vivo, Sprague-Dawley rats
Experimental: After completion of Stage I, the rats were re-trained with cocaine for one week to ensure stable baseline. And then the rats underwent a 6-day extinction training procedure in which only saline infusion occurred when active lever was pressed. Meanwhile, the rats were divided into 3 roughly even groups for pharmacological stressor-induced reinstatement—All rats received one injection of alpha-2 adrenergic antagonist yohimbine (2 mg/kg) and then placed into the training box immediately). Thirty min before yohimbine treatment, one group of rats received saline, another group received MTEP 3 mg/kg injection, and the 3rd group received Compound 1 at 3 mg/kg.
Yohimbine-induced reinstatement was re-tested two more times in the same rats 3 days and 6 days after the first test, under continuous extinction procedure (There were 2 more days of extinction training between the 1st and 2nd reinstatement test, and between the 2nd and 3rd reinstatement test). Using the 3×3 within subject design, each given animal goes through all three treatments (saline, MTEP and Compound 1) across the three rounds of test.
(§1) A one-way mixed-effects model (REML) of ANOVA followed by Dunnett's post hoc tests were used to analyze efficacy of Compound 1 and MTEP on cocaine self-administration in stages I (The repeated measure ANOVA was not totally applicable due to a few outlier data points, which are removed), and one-way mixed-effects model (REML) of ANOVA followed by Tukey's post hoc tests were used in Stage II. An effect was considered significant if P<0.05. Data were represented as the mean and standard error to the mean (s.e.m).
Statistical outliers which exceeded mean +/− (2× standard deviation) of the group were removed from the analysis. Also, for reinstatement, the extinction time was shortened (from 9 days plus extension as option to 6 days). In the present study, 3 rounds of reinstatement tests were performed, and we wished to maintain the reinstatement power, thus we cut extinction duration. Accordingly, we loosened the extinction criterion from 6 or less infusions to 9 or less infusions during the last extinction session. With this criterion, 17 out of 21 rats were eligible in drug test in Stage II.

[2] = test system: oxycodone reinstatement in rats; assay: Yohimbine-induced reinstatement of oxycodone self-administration; format: in vivo, Sprague-Dawley rats; settings: yohimbine 2 mg/kg; P<0.001
Experimental: Evaluation of Compound 1 on Oxycodone Reinstatement. After completion of testing rats were re-trained with oxycodone for one week to ensure stable baseline. Rats then underwent a 6-day extinction where only saline infusion occurred when active lever was pressed. Meanwhile, the rats were divided into 3 groups: All rats received one injection of alpha-2 adrenergic antagonist yohimbine (2 mg/kg) with 0 min pretreatment (rats were placed into the training box immediately). Thirty minutes before yohimbine treatment, one group of rats received saline, another group received MTEP 3 mg/kg injection, and the 3rd group received Compound 1 (3 mg/kg). Yohimbine-induced reinstatement was re-tested two more times in the same rats 3 days and 6 days after the first test, under continuous extinction procedure.
as §1, with “Statistical Analysis. Prism 9.40 software package Version 9 was used for statistical analysis and graphing. The number of active lever responses were recorded during each session and compared between treatment groups. A one-way” for “A one-way”, “MTEP on oxycodone self-administration in” for “MTEP on cocaine self-administration in”, “mean (s.e.m). Statistical outliers which exceeded mean +/− (2× standard deviation) of the group were removed from the analysis.” for “mean (s.e.m).”

[3] = test system: cue-induced reinstatement of alcohol-seeking behavior in Wistar rats; settings: earlier work of the authors; cited from earlier work
[4] = test system: voluntary home-cage alcohol drinking by Wistar rats; assay: Home-cage two-bottle choice alcohol drinking, acute treatment; format: in vivo; settings: each drug 3 mg/kg i.p. acute
Experimental: Animals: Male Wistar rats (Charles River Laboratories, INC) were used in these studies. Rat housing and testing was conducted at the University of North Carolina at Chapel Hill (UNC-CH) School of Medicine in a state-of-the-art rodent vivarium approved by the Association for Assessment and Accreditation of Laboratory Animal Care International (AAALAC). Rat health was monitored daily by study investigators and veterinarians in the Division of Comparative Medicine UNC. All experimental procedures were carried out in accordance with the NIH Guide to Care and Use of Laboratory Animals (Committee for the Update of the Guide for the Care and Use of Laboratory Animals, 2011) and institutional guidelines.
Rats were housed individually in standard Plexiglas cages with standard rodent food and water available ad libitum. Upon arrival from the vendor, rats were given 7 days to acclimate to the vivarium during which they were weighed and handled by an investigator each day to monitor general health and habituate them to human contact. Rats were then weighed each day within 1-h of experimental procedures to calculate drug dosages relative to body weight. […] The colony was maintained at […] on a 12-hour light/dark cycle, with the lights on from 10 AM-10 PM. All behavioral experiments were conducted during the light portion of the light cycle.
Home-cage alcohol drinking method. Oral alcohol and water intake were examined using a two-bottle choice protocol, which is standard in the field and commonly used in our laboratory. Male Wistar rats (n=12) were first adapted to drinking from a 50 ml conical tube fitted with a standard stainless-steel ball bearing sipper tube that limits spillage. Then, two bottles were place on the cage daily. One bottle contained an alcohol solution and the other contained water. Bottles containing fresh solutions were weighed daily before and after a 24 hr access period. After drug treatment, bottles were weighed after 1 hr and 24 hrs of access. Each week, rats had 4-5 days of sweetened alcohol and water available and the remaining days only water.
Briefly, rats were first exposed to alcohol (10% v/v)+sucrose (5% w/v). versus water in the two bottles. Then, over a period of 6-weeks, the concentrations of alcohol and sucrose were gradually adjusted to alcohol (8% v/v)+sucrose (2% w/v) to achieve intake of pharmacologically relevant doses of alcohol. Rats were maintained at this concentration for the duration of the experiment for both acute (3.1.a) and chronic (3.1.b) home-cage drinking studies. Use of sweetened alcohol solutions in preclinical research provides face validity to the binge-intoxication stage of alcohol addiction in humans where sweeteners are commonly added to alcohol.
Compound 1 treatment. After establishing baseline intake of sweetened alcohol and water, rats were habituated to i.p. injections. All rats (N=12) were administered 3 habituation injections of vehicle (10% w/v kolliphor in BCD (10%)) prior to the Compound 1 dose response curve and alcohol intake was measured. Then, the Compound 1 dose response curve was conducted with dose order randomized according to a modified Latin-Square design. Rats were given a minimum of 1-2 days between injections to ensure normal drinking was re-established in absence of drug administration. Each dose of Compound 1 (0-10 mg/kg) was administered via i.p. injection and rats were placed back in the home-cage for 1 hr prior to the return of sweetened alcohol and water. Alcohol intake was measured after 1-h and 24-hrs of access in grams by weighing the drinking bottles. Data were excluded from 1 rat that emptied both bottles fully each day without drinking the solutions; thus, results are presented for a final group of N=11 rats.
Efficacy comparisons to MPEP and Naltrexone. […]

[5] = yohimbine 2 mg/kg after saline pretreatment

Row | Compound | cocaine reinstatement, Mean Diff., Last Day of Cocaine Retraining vs. Saline - Yohimbine 2 mg/kg [1, 5] | cocaine reinstatement, Mean Diff., Last Day of Extinction vs. Saline - Yohimbine 2 mg/kg [1, 5] | reinstatement of cocaine self-administration after extinction ([1]; yohimbine 2 mg/kg, P<0.001) | reinstatement of oxycodone self-administration relative to extinguished level [2] | cue-induced reinstatement in rats [3] | alcohol intake at the 24-hr measurement interval, comparison of equivalent doses [4] | alcohol drinking at 1-hr of access vs vehicle control, positive control comparison ([4]; N=11)
1 | COC(=O)[C@@H]1[C@H]2C[C@H]3c4[nH]c5ccccc5c4CCN3C[C@@H]2CC[C@@H]1O [Yohimbine, yohimbine] | 6.294 | −14.53 | induced significant reinstatement | induced significant reinstatement |  |  | 
2 | Cc1cccc(C#Cc2ccccc2)n1 [MPEP, reference compound] |  |  |  |  | blocks cue-induced reinstatement | only Compound 1 (3 mg/kg) maintained efficacy | significantly decreased alcohol drinking
